Reference: US20240352145A1, “EFFICACY OF ANTI-TROP-2-SN-38 ANTIBODY DRUG CONJUGATES FOR THERAPY OF TUMORS RELAPSED/REFRACTORY TO CHECKPOINT INHIBITORS” (Immunomedics, Inc., priority 2016, published 2024)
Read-outs that look alike come from different tables or passages of the source.

Key:
[1] = system: human gastric carcinoma xenografts (NCI-N87); test: NCI-N87 xenograft, comparison of anti-Trop-2 ADCs; type: in vivo, mouse
Experimental: NCI-N87 cells were expanded in tissue culture and harvested with trypsin/EDTA. Female athymic nude mice were injected s.c. with 200 μL of NCI-N87 cell suspension mixed 1:1 with matrigel such that 1×10^7 cells was administered to each mouse. Once tumors reached approximately 0.25 cm^3 in size (6 days later), the animals were divided up into seven different treatment groups of nine mice each. For the SN-38 ADCs, mice received 500 μg i.v. injections once a week for two weeks. Control mice received the non-tumor targeting hA20-SN-38 ADC at the same dose/schedule. A final group of mice received only saline and served as the untreated control. Tumors were measured and mice weighed twice a week. Mice were euthanized for disease progression if their tumor volumes exceeded 1.0 cm^3 in size.

[2] = system: Trop-2+ human gastric carcinoma xenografts (NCI-N87); test: Effect of DAR on efficacy, NCI-N87 xenograft; type: in vivo, mouse; conditions: for median survival time (MST): 2 treatments 7 days apart, 0.5 mg
From the text: Effect of DAR on pharmacokinetics and anti-tumor efficacy in mice.

PC-3 = test: In vitro cytotoxicity, PC-3
From the text: (§1) Cell lines, antibodies, and chemotherapeutics—All human cancer cell lines used in this study were purchased from the American Type Culture Collection.

[3] = system: metastatic non-small cell lung cancer (NSCLC); test: Phase I/II, metastatic NSCLC cohort; type: in vivo, human
Experimental: The best responses by RESIST 1.1 criteria were determined (not shown).

Calu-3 = test: In vitro cytotoxicity, Calu-3
From the text: as §1

metastatic SCLC = test: Phase I/II, metastatic SCLC cohort; type: in vivo, human
BxPC-3 = test: Cytotoxicity (MTS), Example 7, BxPC-3; type: cell-based, human; conditions: BxPC-3, 96 h
Experimental: One day prior to adding the ADC, cells were harvested from tissue culture and plated into 96-well plates at 2000 cells per well. […] Plates were incubated at 37° C. for 96 h. […] Growth inhibition was measured as a percent of growth relative to untreated cells using Microsoft Excel and Prism software (non-linear regression to generate sigmoidal dose response curves which yield IC50-values).

[4] = Tolerability in Cynomolgus monkeys; type: in vivo, Macaca fascicularis
Experimental: Tolerability studies were performed in Cynomolgus monkeys (Macaca fascicularis; 2.5-4 kg male and female) by SNBL USA, Ltd. Animals were implanted subcutaneously with different human cancer cell lines.
Dosages, times, and number of monkeys bled for evaluation of possible hematologic toxicities and serum chemistries are described in the Results.

HCC1806 (Trop-2+) = test: dsDNA breaks, phospho-H2AX flow cytometry, HCC1806; type: cell-based, human; conditions: untreated baseline 168
Experimental: In vitro specificity testing by flow cytometry with rH2AX-stained cells—For drug activity testing, HCC1806 and HCC1395 TNBC cell lines cells were seeded in 6-well plates at 5×10^5 cells/well and held at 37° C. overnight. […] The signal intensity of rH2AX was measured by flow cytometry using a BD FACSCalibur (BD Biosciences, San Jose, CA).
The cells were then washed to remove unbound conjugate, and then incubated overnight at 37° C.

[5] = system: human gastric carcinoma xenograft, NCI-N87; test: NCI-N87 gastric carcinoma xenograft, Example 17; type: in vivo, mouse
From the text: In Vivo Therapeutic Studies—NCr female athymic nude (nu/nu) mice, 4-8 weeks old, were purchased from Taconic Farms (Germantown, NY). NCI-N87 gastric tumor xenografts were established by harvesting cells from tissue culture and making a final cell suspension 1:1 in matrigel (BD Bioscience; San Jose, CA), with each mouse receiving a total of 1×10^7 cells s.c. in the right flank. For BxPC-3. xenografts of 1 g were harvested, and a tumor suspension made in HBSS to a concentration of 40% tumor w/v. This suspension was mixed 1:1 with matrigel for a final tumor suspension of 20% w/v. […] For IHC, tumors were allowed to grow to approximately 0.5 cm^3 before the mice were euthanized and the tumors removed, formalin-fixed and paraffin-embedded. For therapy studies, mice were randomized into treatment groups and therapy begun when tumor volumes were approximately 0.25 cm^3.
Mice were euthanized and deemed to have succumbed to disease once tumors grew to greater than 1.0 cm^3 in size. […] Time to progression (TTP) was determined as time post-therapy initiation when the tumor grew more than 20% in size from its nadir.
Survival studies were analyzed using Kaplan-Meier plots (log-rank analysis), using the Prism GraphPad Software (v4.03) software package (Advanced Graphics Software, Inc., Encinitas, CA).

MDA-MB-468 TNBC tumors = test: MDA-MB-468 TNBC xenograft; type: in vivo, mouse
MDA-MB-231 = conditions: mouse, in vivo
TNBC = type: in vivo, human
Experimental: Medical History—The patient is a person who was first diagnosed in October 2007 with a 1.8 cm mass in their right breast. They underwent a right mastectomy with a sentinel node biopsy (no malignancy in nodes). The tumor was determined to be negative for ER, PR and Her-2 (i.e., TNBC). They proceeded with 4 cycles of AC (doxorubicin and cyclophosphamide) therapy, followed by weekly low dose paclitaxel (×12). […] They had local surgery to remove the node and then received XRT (radiation therapy) through March 2009. In June 2010 CT documented recurrent pulmonary and bone involvement. The patient enrolled in a clinical trial using AVASTIN® (bevacizumab), METMAB® (onartuzumab, […]), and TAXOL® (paclitaxel), which they were maintained on until March 2013, having a complete response, but eventual progression of peripheral lung nodule and node in AP (aortopulmonary) window. In September 2014, they started on PD-L1 antibody (MPDL3280A) for 6 cycles, but progressed in January 2015.
2015 at a dose of 10 mg/kg, and has continued to receive this dose without reduction or delay in planned schedule now for 40+ doses.

## IMMU-132
[1]; 500 μg i.v. once a week for two weeks
  tumor growth (AUC) vs saline and hA20-SN-38: significantly inhibited tumor growth
[1]; mouse, in vivo
  mean time to tumor progression (TTP): 18.4 ± 3.3 days
[1]; nine mice per group
  mice with stable disease: 7 of 9
[2]; DAR 1.64
  median survival time (MST): 21 days
[2]; DAR 3.28 (printed 3.38)
  median survival time (MST): 25 days
[2]; DAR 6.89, 0.5 mg twice weekly for two weeks vs DAR 3.28, 1 mg
  tumor growth inhibition (AUC): inhibited tumor growth significantly more than tumor-bearing animals treated with the 3.28 DAR conjugate
[2]; DAR 6.89
  median survival time (MST): 39 days
PC-3
  IC50: 4.24 nM
[3]; 8 mg/kg
  median PFS: 3.4 months
[3]; 10 mg/kg
  median PFS: 3.8 months
[3]; 21/33
  patients with PR or SD: 64%
[3]; 29 assessable patients, 8 or 10 mg/kg
  PR, patients: 8
[3]; in vivo
  median time to progression: 9/4
Calu-3
  IC50: 9.97 nM
Metastatic SCLC; 8 mg/kg
  median OS: 8.1 months
  median PFS: 2.0 months
Metastatic SCLC; 10 mg/kg
  median PFS: 3.6 months
Metastatic SCLC; in vivo
  median time to progression: 4.9 months
BxPC-3
  IC50: 5.8 nM
[4]; 2x0.96 mg SN-38/kg
  serum chemistries: No abnormal values
  weight loss: ≤ 7.3%
[4]; 2x0.96 mg SN-38/kg, day 11
  histopathology, microscopic changes: minimal to moderate
[4]; 2x0.96 mg/kg, transient decreases, listed as sacituzumab govitecan
  blood counts: the values did not fall below normal ranges
[4]; 2x1.92 mg SN-38/kg, gastrointestinal complications and bone marrow suppression
  deaths: 1
[4]; cynomolgus monkey, in vivo
  extrapolated human dose: ~0.3 mg/kg/dose
HCC1806 (Trop-2+)
  Median fluorescence intensity, anti-rH2AX-AF488: 546
[5]; 17.5 mg/kg, twice weekly x 4 weeks
  anti-tumor effects vs non-specific control: significant anti-tumor effects
[5]; 14 days for saline control
  median survival time (MST): 66 days
[5]; mouse, in vivo
  mean time to progression (TTP): 41.7 ± 4.2 days
  partial responders, mice: 6 of 7
MDA-MB-468 TNBC tumors; 0.12 or 0.20 mg/kg SN-38-equivalents, vs saline, irinotecan, hA20-CL2A-SN-38
  tumor response: induced significant tumor regression
MDA-MB-468 TNBC tumors; mice progressed on hA20-CL2A-SN-38 (0.74±0.41 cm^3), then 0.2 mg/kg
  total volume [TV] five weeks after re-treatment: 0.14±0.14 cm^3
MDA-MB-468 TNBC tumors; one animal each, tumors progressed to ~0.7 cm^3 on irinotecan
  decrease in tumor size after re-treatment: 60%
MDA-MB-231
  specific therapeutic effects: specific therapeutic effects with IMMU-132 were not achieved
TNBC; 10 mg/kg
  Best Response, shrinkage: 54%
TNBC; 10 mg/kg, patient progressed after PD-L1 therapy
  Best Response: Partial response, confirmed
TNBC; CT 7 Apr. 2015, first assessment
  decrease in sum of target lesion diameters: 33%
TNBC; CT 13 Sep. 2015
  decrease in sum of target lesion diameters: 52%
TNBC; CT 15 November
  decrease in sum of target lesion diameters: 54%
TNBC; CT 18 May 2015
  decrease in sum of target lesion diameters: 48%
TNBC; CT 19 Jul. 2015
  decrease in sum of target lesion diameters: 50%
TNBC; CT 25 Feb. 2016
  decrease in sum of target lesion diameters: 46%
TNBC; not reached
  time to progression: ≥ 12.4 months
